According to patent publication US4670444A, “7-amino-1-cyclopropyl-4-oxo-1, 4-dihydro-quinoline-and naphthyridine-3-carboxylic acids and antibacterial agents containing these compounds” (Bayer Aktiengesellschaft, priority 1980, dated 1987):
Converted amounts (≈) assume the structure as drawn. Like-named read-outs stand apart in the source and are kept apart here.

Columns and labels:
Type in all cases: cell-based
[1] = test system: Staphylococcus aureus 133; assay: Agar dilution test, DST medium; conditions: 1-2 × 10^3 germs/plate
E. coli A 261 = assay: Agar dilution test, DST medium; conditions: 1-2 × 10^3 germs/plate
E. coli Neum. = assay: Agar dilution test, DST medium; conditions: 1-2 × 10^3 germs/plate
Klebsiella 8085 = assay: Agar dilution test, DST medium; conditions: 1-2 × 10^3 germs/plate
Proteus 1017 = assay: Agar dilution test, DST medium; conditions: 1-2 × 10^3 germs/plate
Pseudomonas aeruginasa = assay: Agar dilution test, DST medium; conditions: 1-2 × 10^3 germs/plate
Escherichia coli 103400 = assay: Agar dilution test, Denley multipoint inoculation method
From the text: (§1) | ^x Denley multipoint inoculation method

Escherichia coli 455/7 = assay: as above
From the text: as §1

Escherichia coli T 7 = assay: as above; conditions: T7, read-out: Minimum inhibitory concentrations in an agar dilution test
From the text: as §1

Klebsiella 63 = assay: as above
From the text: as §1

Proteus 8228 = assay: as above; conditions: read-out: Minimum inhibitory concentrations in an agar dilution test
From the text: as §1

Pseudomonas 7167 = assay: as above; conditions: read-out: Minimum inhibitory concentrations in an agar dilution test
From the text: as §1

Salmonella 683 = assay: as above; conditions: read-out: Minimum inhibitory concentrations in an agar dilution test
From the text: as §1

[2] = Escherichia coli 103400, Denley multipoint inoculation method, read-out: Minimum inhibitory concentrations in an agar dilution test
[3] = Escherichia coli 455/7, Denley multipoint inoculation method, read-out: Minimum inhibitory concentrations in an agar dilution test
[4] = Klebsiella 63, Denley multipoint inoculation method, read-out: Minimum inhibitory concentrations in an agar dilution test
[5] = Proteus 8228, Denley multipoint inoculation method

`O=C(O)c1cn(C2CC2)c2cc(N3CCNCC3)ncc2c1=O` was tested, and the “antibacterial action in agar dilution test” value (“antibacterial action” for short) [1] was 8, the “antibacterial action” value (E. coli A 261) was 1 and the “antibacterial action” value (E. coli Neum.) was 1. The “antibacterial action” value (Klebsiella 8085) was 1, the “antibacterial action” value (Proteus 1017) was 0.5 and the “antibacterial action” value (Pseudomonas aeruginasa) was 4.
With `CCn1cc(C(=O)O)c(=O)c2cc(F)c(N3CCNCC3)cc21` the “antibacterial action” value [1] was 1, the “antibacterial action” value (E. coli A 261) was 0.125 and the “antibacterial action” value (E. coli Neum.) was 0.25. The “antibacterial action” value (Klebsiella 8085) was 0.25, the “antibacterial action” value (Proteus 1017) was 0.06 and the “antibacterial action” value (Pseudomonas aeruginasa) was 1.
`O=C(O)c1cn(C2CC2)c2cc(N3CCNCC3)c(F)cc2c1=O` [1-cyclopropyl-6-fluoro-1,4-dihydro-4-oxo-7-piperazino-quinoline-3-carboxylic acid] was tested, and the “antibacterial action” value [1] was 0.25-0.5, the “antibacterial action” value (E. coli A 261) was 0.06 and the “antibacterial action” value (E. coli Neum.) was 0.06. The “antibacterial action” value (Klebsiella 8085) was 0.06, the “antibacterial action” value (Proteus 1017) was 0.03 and the “antibacterial action” value (Pseudomonas aeruginasa) was 0.5.
In the case of `CN1CCN(c2cc3c(cn2)c(=O)c(C(=O)O)cn3C2CC2)CC1` [Example 1, 7-(4-Methylpiperazino)-1-cyclopropyl-4-oxo-1,4-dihydro-1,6-naphthyridine-3-carboxylic acid], the MIC (Escherichia coli 103400; [2]) is reported as 0.25 µg/mL (≈ 0.761 µM), the MIC (Escherichia coli 455/7; [3]) is reported as 128 µg/mL (≈ 390 µM) and the MIC (Escherichia coli T 7) is reported as 0.25 µg/mL (≈ 0.761 µM). It also gave an MIC (Klebsiella 63; [4]) of 1 µg/mL (≈ 3.05 µM), an MIC (Proteus 8228; [5]) of 2 µg/mL (≈ 6.09 µM) and an MIC (Pseudomonas 7167) of 8 µg/mL (≈ 24.4 µM). For the same compound, the MIC (Salmonella 683) was 0.5 µg/mL (≈ 1.52 µM).
Work on `CCn1cc(C(=O)O)c(=O)c2ccc(C)nc21` [Nalidixic acid, 1-ethyl-7-methyl-1,8-naphthyrid-4-one-3-carboxylic acid] yielded an MIC (Escherichia coli 103400; Escherichia coli, 103400, read-out: Minimum inhibitory concentrations in an agar dilution test) of 2 µg/mL (≈ 8.61 µM), an MIC (Escherichia coli 455/7; Escherichia coli, 455/7, read-out: Minimum inhibitory concentrations in an agar dilution test) of 256 µg/mL (≈ 1100 µM) and an MIC (Escherichia coli T 7) of 1 µg/mL (≈ 4.31 µM). The MIC (Klebsiella 63; Klebsiella, 63, read-out: Minimum inhibitory concentrations in an agar dilution test) was 4 µg/mL (≈ 17.2 µM), the MIC (Proteus 8228) was 8 µg/mL (≈ 34.4 µM) and the MIC (Pseudomonas 7167) was 64 µg/mL (≈ 276 µM). For the same compound, the MIC (Salmonella 683) was 4 µg/mL (≈ 17.2 µM).
`CCn1cc(C(=O)O)c(=O)c2cnc(N3CCNCC3)nc21` [Pipemidic acid, 2-piperazino-8-ethyl-5-oxo-5,8-dihydropyrido 2,3-d pyrimidine-6-carboxylicacid] was tested, and the MIC (Escherichia coli 103400; [2]) was 1 µg/mL (≈ 3.3 µM), the MIC (Escherichia coli 455/7; [3]) was 128 µg/mL (≈ 422 µM) and the MIC (Escherichia coli T 7) was 2 µg/mL (≈ 6.59 µM). For the same compound, the MIC (Klebsiella 63; [4]) was 2 µg/mL (≈ 6.59 µM), the MIC (Proteus 8228; [5]) was 4 µg/mL (≈ 13.2 µM) and the MIC (Pseudomonas 7167) was 16 µg/mL (≈ 52.7 µM). The MIC (Salmonella 683) was 2 µg/mL (≈ 6.59 µM).
